Results from the OligoGym collection.
HELM strings list units from the 5' end as sugar, base in round brackets, then linkage (d deoxyribose, r ribose, m 2'-O-methyl, p phosphodiester). Strings are as the collection lists them; they lack the last nucleoside at the 3' end of the tested compound. [moe] = 2'-O-(2-methoxyethyl) (MOE); [sp] = phosphorothioate linkage; [m5C] = 5-methylcytosine

target: GFAP; test: mouse, dose not given; conditions: ASO

Row | Substance | 3 h FOB score [score 0-7]
1 | RNA1{[moe](G)[sp].[moe](T)p.[moe]([m5C])p.[moe](A)p.[moe]([m5C])[sp].d(A)[sp].d(T)[sp].d(T)[sp].d([m5C])[sp].d(A)[sp].d([m5C])[sp].d(T)[sp].d(A)[sp].[moe](A)p.[moe](T)p.[moe](A)[sp].[moe](T)}$$$$ (last 3' nucleoside missing) | 0
2 | RNA1{[moe](T)[sp].[moe](A)p.[moe]([m5C])p.[moe](A)p.[moe](T)[sp].d([m5C])[sp].d([m5C])[sp].d([m5C])[sp].d([m5C])[sp].d(T)[sp].d(T)[sp].d(T)[sp].d([m5C])[sp].d(T)[sp].d([m5C])[sp].[moe](T)p.[moe]([m5C])p.[moe]([m5C])[sp].[moe](T)}$$$$ (last 3' nucleoside missing) | 1
3 | RNA1{[moe](A)[sp].[moe]([m5C])p.[moe](T)p.[moe](A)p.[moe](T)[sp].d([m5C])[sp].d(T)[sp].d(A)[sp].d(G)[sp].d(G)[sp].d(A)[sp].d(T)[sp].d(T)[sp].[moe](T)p.[moe](G)p.[moe](G)[sp].[moe]([m5C])}$$$$ (last 3' nucleoside missing) | 4
4 | RNA1{[moe](G)[sp].[moe](G)p.[moe](A)p.[moe](G)p.[moe](A)[sp].d(A)[sp].d(G)[sp].d(G)[sp].d(T)[sp].d([m5C])[sp].d(T)[sp].d(G)[sp].d([m5C])[sp].d(A)[sp].d([m5C])[sp].[moe](G)p.[moe](G)p.[moe](G)[sp].[moe](A)}$$$$ (last 3' nucleoside missing) | 7
5 | RNA1{[moe](G)[sp].[moe](T)p.[moe]([m5C])p.[moe](A)p.[moe]([m5C])p.[moe](A)p.d(T)[sp].d(T)[sp].d([m5C])[sp].d(A)[sp].d([m5C])[sp].d(T)[sp].d(A)[sp].d(A)[sp].d(T)[sp].d(A)[sp].[moe](T)p.[moe](T)[sp].[moe](T)}$$$$ (last 3' nucleoside missing) | 0
6 | RNA1{[moe](G)[sp].[moe](T)p.[moe](G)p.[moe](A)p.[moe](G)[sp].d(G)[sp].d([m5C])[sp].d(T)[sp].d(T)[sp].d(T)[sp].d(T)[sp].d(G)[sp].d(A)[sp].d(G)[sp].d(A)[sp].[moe](T)p.[moe](A)p.[moe](T)[sp].[moe]([m5C])}$$$$ (last 3' nucleoside missing) | 5
7 | RNA1{[moe](T)[sp].[moe]([m5C])p.[moe](T)p.[moe](G)p.[moe]([m5C])[sp].d([m5C])[sp].d(A)[sp].d(T)[sp].d(T)[sp].d(T)[sp].d(A)[sp].d(T)[sp].d([m5C])[sp].[moe](T)p.[moe](G)p.[moe](T)[sp].[moe](G)}$$$$ (last 3' nucleoside missing) | 3
8 | RNA1{[moe](T)[sp].[moe](G)p.[moe](G)p.[moe]([m5C])p.[moe](A)[sp].d(A)[sp].d([m5C])[sp].d(A)[sp].d(G)[sp].d(T)[sp].d(T)[sp].d(T)[sp].d([m5C])[sp].d([m5C])[sp].d(A)[sp].[moe](T)p.[moe](A)p.[moe](A)[sp].[moe]([m5C])}$$$$ (last 3' nucleoside missing) | 1
9 | RNA1{[moe](T)[sp].[moe](G)p.[moe](A)p.[moe]([m5C])p.[moe]([m5C])[sp].d(T)[sp].d(G)[sp].d(T)[sp].d(G)[sp].d(A)[sp].d([m5C])[sp].d(T)[sp].d(A)[sp].d(T)[sp].d([m5C])[sp].[moe](T)p.[moe](A)p.[moe](G)[sp].[moe](G)}$$$$ (last 3' nucleoside missing) | 5
10 | RNA1{[moe](G)[sp].[moe](G)p.[moe](G)p.[moe]([m5C])p.[moe](A)[sp].d([m5C])[sp].d(T)[sp].d(A)[sp].d([m5C])[sp].d([m5C])[sp].d(T)[sp].d(A)[sp].d(G)[sp].d(A)[sp].d(A)[sp].[moe](T)p.[moe](A)p.[moe]([m5C])[sp].[moe](T)}$$$$ (last 3' nucleoside missing) | 5
11 | RNA1{[moe](G)[sp].[moe](T)p.[moe](G)p.[moe](T)p.[moe](G)[sp].d(T)[sp].d(A)[sp].d(T)[sp].d(T)[sp].d(A)[sp].d(G)[sp].d(G)[sp].d(A)[sp].[moe](T)p.[moe]([m5C])p.[moe]([m5C])[sp].[moe]([m5C])}$$$$ (last 3' nucleoside missing) | 3
12 | RNA1{[moe](G)[sp].[moe](T)p.[moe](A)p.[moe](G)p.[moe](T)[sp].d(T)[sp].d(T)[sp].d([m5C])[sp].d([m5C])[sp].d(T)[sp].d(T)[sp].d(T)[sp].d(T)[sp].d(A)[sp].d([m5C])[sp].[moe]([m5C])p.[moe](A)p.[moe](A)[sp].[moe](G)}$$$$ (last 3' nucleoside missing) | 1
13 | RNA1{[moe](T)[sp].[moe](T)p.[moe](T)p.[moe](G)p.d(G)[sp].d([m5C])[sp].d(A)[sp].d(G)[sp].d(T)[sp].d(A)[sp].d(T)[sp].d(T)[sp].d(A)[sp].d([m5C])[sp].[moe]([m5C])p.[moe](T)p.[moe]([m5C])p.[moe](T)[sp].[moe](A)}$$$$ (last 3' nucleoside missing) | 1
14 | RNA1{[moe]([m5C])[sp].[moe]([m5C])p.[moe](A)p.[moe](T)p.[moe](T)[sp].d(T)[sp].d(A)[sp].d(T)[sp].d([m5C])[sp].d(T)[sp].d(G)[sp].d(T)[sp].d(G)[sp].[moe]([m5C])p.[moe](T)p.[moe](T)[sp].[moe](T)}$$$$ (last 3' nucleoside missing) | 4
15 | RNA1{[moe](A)[sp].[moe](T)p.[moe](T)p.[moe](T)p.[moe](G)[sp].d(T)[sp].d([m5C])[sp].d(T)[sp].d(T)[sp].d(T)[sp].d(A)[sp].d(T)[sp].d(T)[sp].d(T)[sp].d(T)[sp].[moe](T)p.[moe]([m5C])p.[moe]([m5C])[sp].[moe](T)}$$$$ (last 3' nucleoside missing) | 0
16 | RNA1{[moe]([m5C])[sp].[moe]([m5C])p.[moe](A)p.[moe](T)p.[moe](T)[sp].d(T)[sp].d(A)[sp].d(T)[sp].d([m5C])[sp].d(T)[sp].d(G)[sp].d(T)[sp].d(G)[sp].d([m5C])[sp].d(T)[sp].[moe](T)p.[moe](T)p.[moe](A)[sp].[moe](G)}$$$$ (last 3' nucleoside missing) | 6
17 | RNA1{[moe]([m5C])[sp].[moe](A)p.[moe]([m5C])p.[moe](G)p.d(T)[sp].d([m5C])[sp].d(A)[sp].d([m5C])[sp].d(A)[sp].d(T)[sp].d(T)[sp].d([m5C])[sp].d(A)[sp].d([m5C])[sp].[moe](T)p.[moe](A)p.[moe](A)p.[moe](T)[sp].[moe](A)}$$$$ (last 3' nucleoside missing) | 0
18 | RNA1{[moe](T)[sp].[moe](T)p.[moe](G)p.[moe](T)p.[moe](G)[sp].d(A)[sp].d(T)[sp].d(T)[sp].d(T)[sp].d(T)[sp].d([m5C])[sp].d([m5C])[sp].d([m5C])[sp].[moe]([m5C])p.[moe](G)p.[moe](T)[sp].[moe]([m5C])}$$$$ (last 3' nucleoside missing) | 2
19 | RNA1{[moe](G)[sp].[moe](G)p.[moe](G)p.[moe](T)p.[moe](G)[sp].d(A)[sp].d([m5C])[sp].d([m5C])[sp].d([m5C])[sp].d(A)[sp].d(A)[sp].d(G)[sp].d(T)[sp].d([m5C])[sp].d([m5C])[sp].[moe](T)p.[moe](T)p.[moe](G)[sp].[moe](G)}$$$$ (last 3' nucleoside missing) | 5
20 | RNA1{[moe](G)[sp].[moe](T)p.[moe]([m5C])p.[moe](T)p.[moe](G)[sp].d(A)[sp].d(G)[sp].d(T)[sp].d([m5C])[sp].d(T)[sp].d([m5C])[sp].d(A)[sp].d(G)[sp].d(T)[sp].d(T)[sp].[moe](T)p.[moe](T)p.[moe]([m5C])[sp].[moe]([m5C])}$$$$ (last 3' nucleoside missing) | 7
21 | RNA1{[moe](G)[sp].[moe]([m5C])p.[moe]([m5C])p.[moe](A)p.[moe](T)[sp].d(T)[sp].d(T)[sp].d(A)[sp].d(T)[sp].d([m5C])[sp].d(T)[sp].d(G)[sp].d(T)[sp].[moe](G)p.[moe]([m5C])p.[moe](T)[sp].[moe](T)}$$$$ (last 3' nucleoside missing) | 1
22 | RNA1{[moe]([m5C])[sp].[moe](A)p.[moe](T)p.[moe](T)p.[moe](T)p.[moe](G)p.d(T)[sp].d([m5C])[sp].d(T)[sp].d(T)[sp].d(T)[sp].d(A)[sp].d(T)[sp].d(T)[sp].d(T)[sp].d(T)[sp].[moe](T)p.[moe]([m5C])[sp].[moe]([m5C])}$$$$ (last 3' nucleoside missing) | 0
23 | RNA1{[moe]([m5C])[sp].[moe](A)p.[moe](T)p.[moe](G)p.[moe](G)[sp].d([m5C])[sp].d([m5C])[sp].d(T)[sp].d(G)[sp].d(G)[sp].d([m5C])[sp].d([m5C])[sp].d(T)[sp].d(T)[sp].d(G)[sp].[moe](A)p.[moe](G)p.[moe](A)[sp].[moe](A)}$$$$ (last 3' nucleoside missing) | 1
24 | RNA1{[moe](T)[sp].[moe](T)p.[moe](G)p.[moe](A)p.[moe](G)[sp].d(A)[sp].d(T)[sp].d(A)[sp].d(T)[sp].d([m5C])[sp].d(T)[sp].d(T)[sp].d(G)[sp].[moe](T)p.[moe](G)p.[moe](A)[sp].[moe]([m5C])}$$$$ (last 3' nucleoside missing) | 3
25 | RNA1{[moe](T)[sp].[moe](G)p.[moe](T)p.[moe]([m5C])p.[moe](T)[sp].d(T)[sp].d(T)[sp].d(A)[sp].d(T)[sp].d(T)[sp].d(T)[sp].d(T)[sp].d(T)[sp].[moe]([m5C])p.[moe]([m5C])p.[moe](T)[sp].[moe]([m5C])}$$$$ (last 3' nucleoside missing) | 1
26 | RNA1{[moe](G)[sp].[moe]([m5C])p.[moe](T)p.[moe](T)p.[moe](T)[sp].d(T)[sp].d(G)[sp].d(A)[sp].d(G)[sp].d(A)[sp].d(T)[sp].d(A)[sp].d(T)[sp].d([m5C])[sp].d(T)[sp].[moe](T)p.[moe](G)p.[moe](T)[sp].[moe](G)}$$$$ (last 3' nucleoside missing) | 2
27 | RNA1{[moe](G)[sp].[moe](G)p.[moe]([m5C])p.[moe](A)p.[moe]([m5C])[sp].d(A)[sp].d(G)[sp].d(T)[sp].d(T)[sp].d([m5C])[sp].d([m5C])[sp].d([m5C])[sp].d(A)[sp].d(G)[sp].d(A)[sp].[moe](T)p.[moe](A)p.[moe]([m5C])[sp].[moe](T)}$$$$ (last 3' nucleoside missing) | 5
